Laboratory results taken from US20260317304A1, “TEAD INHIBITORS AND METHODS OF USE” (Sporos BioDiscovery, Inc., priority 2022, published 2026).
Entries after “also recorded” stand apart in the source; their conditions may differ.

What was measured:
[1] = system: TEAD; settings: control compounds; cited from earlier work
[2] = system: MSTO-211H xenograft; test: Mouse xenograft MSTO-211H tumors compared to prior art TEAD inhibitor; format: in vivo, BALB/c nude mice; settings: 7 days of treatment, PO BID, 3 mg/kg Compound 1-1
Method: This study evaluated the in vivo anti-tumor efficacy of test compounds in BALB/c nude mice for treatment of MSTO-211H xenograft of lung cancer.
The MSTO-211H tumor cells were maintained in vitro in RPMI 1640 medium supplemented with 10% Fetal bovine serum and 1% Antibiotic-Antimycotic at 37° C. in an atmosphere of 5% CO2 in air. The tumor cells were routinely subcultured twice weekly by trypsin-EDTA. The cells growing in an exponential growth phase were harvested and counted for tumor inoculation.
Each mouse was inoculated subcutaneously at the right flank with MSTO-211H tumor cells (10×10^6+50% matrigel/0.2 mL) for tumor development. Test subjects received vehicle (e.g., 0.5% CMC-Na+1% Tween80) beginning on day 7 after cell inoculation. […]
The major endpoint was to determine if the tumor growth could be delayed. Tumor size was measured twice a week in two dimensions using a caliper, and the volume was expressed in mm^3 using the formula: V=0.5 a×b^2 where a and b are the long and short diameters of the tumor, respectively. […]
Summary statistics, including mean and the standard error of the mean (SEM), were calculated for the tumor volume of each group at each time point. […]
One-tailed T test was performed to compare tumor volumes between two groups. All data were analyzed using GraphPad Prism 6.0. p<0.05 was considered to be statistically significant.

[3] = target: TEAD2 (Homo sapiens, UniProt Q15562); test: TEAD thermal shift assay (TSA); format: binding; settings: Ratio of Protein to Compound 1:3
Sequence of TEAD2 (Homo sapiens, UniProt Q15562) (Q15562 whole entry): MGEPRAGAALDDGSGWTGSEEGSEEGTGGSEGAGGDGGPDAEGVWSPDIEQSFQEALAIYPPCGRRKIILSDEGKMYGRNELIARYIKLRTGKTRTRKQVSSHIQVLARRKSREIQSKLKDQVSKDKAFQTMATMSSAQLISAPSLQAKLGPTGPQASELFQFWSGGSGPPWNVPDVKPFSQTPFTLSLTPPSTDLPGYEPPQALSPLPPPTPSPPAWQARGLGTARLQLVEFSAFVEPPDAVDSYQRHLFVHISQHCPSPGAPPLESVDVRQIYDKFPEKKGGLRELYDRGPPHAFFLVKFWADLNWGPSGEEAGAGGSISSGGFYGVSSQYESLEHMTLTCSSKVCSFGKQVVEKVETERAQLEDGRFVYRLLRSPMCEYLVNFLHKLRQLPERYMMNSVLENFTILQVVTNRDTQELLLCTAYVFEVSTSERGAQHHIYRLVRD
Description: (§1) Thermal shift assay (TSA) is a biophysical method to evaluate stability of proteins with change in temperature. The assay measures thermal denaturation temperature in varying conditions such as different drug concentration. For this example, fluorogenic dye was used that bind to unfolded proteins. SYPRO Orange binds non-specifically to hydrophobic surfaces, and water strongly quenches its fluorescence. When the protein unfolds, the exposed hydrophobic surfaces bind the dye, resulting in an increase in fluorescence by excluding water. Detergent micelles also bind the dye and increase background noise dramatically. Binding of small molecules to proteins leads to a stabilization against to thermal denaturation with the degree of thermal stabilization proportional to the strength of binding.
(§2) The study described in this example investigated the change in melting temperature (ΔTm) of TEAD isoforms 1-4 when treated with TEAD inhibitors.
(§3) Tris-HCL was dissolved in 5 mL of Cell culture grade water and allowed to dissolve completely. The pH was adjusted to 8 using NaOH. Additional assay buffer components were added in the order listed above. The buffer was mixed slowly.
(§4) Assay buffer was prepared according to the procedures outlined above and dispensed into test wells. Spyro orange was added to a concentration of 5× in the assay buffer, followed by test compound stock solution which was added to a concentration of 10 μM or 30 μM in the assay buffer.
(§5) The melt cycle was performed in Bio-RAD PCR instrument from 20-95° C. with ramp rate of 1° C./min.

[4] = target: TEAD4 (Homo sapiens, UniProt Q15561); test: TEAD thermal shift assay (TSA); format: binding; settings: Ratio of Protein to Compound 1:3
Sequence of TEAD4 (Homo sapiens, UniProt Q15561) (Q15561 whole entry): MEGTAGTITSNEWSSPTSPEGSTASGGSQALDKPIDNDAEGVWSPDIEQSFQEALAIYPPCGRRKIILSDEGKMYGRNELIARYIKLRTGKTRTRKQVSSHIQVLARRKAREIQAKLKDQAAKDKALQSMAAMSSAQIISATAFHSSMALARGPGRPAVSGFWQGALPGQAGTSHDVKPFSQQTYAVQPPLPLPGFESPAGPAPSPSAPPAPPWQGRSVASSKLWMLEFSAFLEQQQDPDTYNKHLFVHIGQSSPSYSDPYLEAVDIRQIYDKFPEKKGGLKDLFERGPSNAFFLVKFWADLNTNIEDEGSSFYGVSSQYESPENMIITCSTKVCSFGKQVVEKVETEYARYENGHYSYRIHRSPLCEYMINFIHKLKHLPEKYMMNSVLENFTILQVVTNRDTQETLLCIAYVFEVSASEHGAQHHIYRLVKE
Description: as §1, §2, §3, §4, §5

[5] = target: TEAD3 (Homo sapiens, UniProt Q99594); test: TEAD thermal shift assay (TSA); format: binding; settings: Ratio of Protein to Compound 1:3
Sequence of TEAD3 (Homo sapiens, UniProt Q99594) (Q99594 whole entry): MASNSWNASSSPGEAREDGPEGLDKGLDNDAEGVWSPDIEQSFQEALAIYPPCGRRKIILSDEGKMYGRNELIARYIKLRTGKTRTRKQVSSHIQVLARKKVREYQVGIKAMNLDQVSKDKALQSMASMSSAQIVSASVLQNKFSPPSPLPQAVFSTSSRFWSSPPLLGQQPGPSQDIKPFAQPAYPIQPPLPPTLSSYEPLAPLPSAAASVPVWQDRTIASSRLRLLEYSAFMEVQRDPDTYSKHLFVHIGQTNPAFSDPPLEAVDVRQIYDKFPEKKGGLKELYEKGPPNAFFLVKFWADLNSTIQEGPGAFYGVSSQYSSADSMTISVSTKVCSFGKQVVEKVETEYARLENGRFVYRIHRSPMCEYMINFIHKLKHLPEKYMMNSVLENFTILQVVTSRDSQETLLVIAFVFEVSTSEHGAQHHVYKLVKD
Description: as §1, §2, §3, §4, §5

[6] = system: TEAD isoforms 1-4; test: TEAD thermal shift assay (TSA), outcome in words; format: binding, human
Description: as §1, §2, §3, §4, §5

[7] = as reported by Tang et al.; cited from earlier work
[8] = system: SDM103T2 cells; test: SDM103T2 proliferation and cell viability assay (CTG); format: cell-based; settings: 144 hours
Method: SDM103T2 cells were trypsinised, counted and plated at 800 cells/well in 200 μl of growth media in 96 well flat bottom tissue culture treated plates. The plated cells were incubated overnight at 37° C., 5% CO2 before being treated with compounds in triplicate for each assay point. 50 μl of the serially diluted compound was added to each well giving a final DMSO concentration of 0.5% per well and a total volume of 250 μl per well. The treated cells were incubated for 144 hours (6 days) at 37° C., 5% CO2. Following compound treatment the remaining viable cells were detected using the Promega CellTiter-Glo 2.0 assay as follows: 150 μl of media was removed from each of the wells to be assayed and 100 μl of room temperature CellTiter-Glo 2.0 reagent was added. The plate was placed on an orbital shaker at 500 rpm at room temperature for 2 minutes, and then incubated without shaking for a further 10 minutes at room temperature. 150 μl of cell lysate was removed from each well and dispensed into a single well of a white opaque 96 well plate. Luminescence at 545 nm was read using a BMG CLARIOstar plate reader. The luminescent signal was directly proportional to number of viable cells, the percent of viable cells relative to the DMSO control was then calculated for each assay point. Percent viability relative to DMSO control was plotted against compound concentration and a curve fitted with non-linear regression in GraphPad Prism software. EC50 and absolute IC50 values were calculated using GraphPad Prism software as follows: For EC50 values a non-constrained four-parameter logistic curve fit was used (Sigmoidal, 4PL, X is concentration). For Absolute IC50 values the baseline was constrained to Y=0 and top at 100 (Absolute IC50, X is concentration). Area Under the Curve (AUC): Prism computes area-under-the-curve by the trapezoidal method. The analysis sees a fitted curve as simply a series of connected XY points. Prism simply computes the area under the “curve” defined by connecting the points by straight lines. The units of the AUC are the units of the Y axis times units of the X axis.
For EC50 data, the symbol “A” indicates a value of less than 0.2 μM; the symbol “B” indicates a value in the range of from 0.2 μM up to 1 μM; and the symbol “C” indicates a value of greater than 1 μM.

[9] = system: TEAD isoforms 1-4; settings: thermal shift data of Tang and Post; cited from earlier work
[10] = system: TEAD2; settings: thermal shift; cited from earlier work
[11] = system: TEAD4; settings: thermal shift; cited from earlier work
[12] = system: TEAD1; settings: thermal shift; cited from earlier work
[13] = system: TEAD3; settings: thermal shift; cited from earlier work

| Structure (SMILES) | known TEAD inhibition (in words) [1] | change in tumor volume (in words) [2] | TEAD2 ΔTm [3] [°C] | TEAD4 ΔTm [4] [°C] | TEAD3 ΔTm [5] [°C] | thermal shift / TEAD binding (in words) [6] | half-life (in words) [7] | EC50 [8] [nM] | TEAD isoform interaction / binding (in words) [9] | selectivity over TEAD2 and 3 (in words) [9] | TEAD2 ΔTm [10] [°C] | TEAD4 ΔTm [11] [°C] | TEAD1 ΔTm [12] [°C] | TEAD3 ΔTm [13] [°C] |
| --- | --- | --- | --- | --- | --- | --- | --- | --- | --- | --- | --- | --- | --- | --- |
| CNS(=O)(=O)c1ccc(Nc2ccc(C(F)(F)F)cc2)c(-c2cn(C)cn2)c1 [Compound 1-1] | known strong TEAD1 and weak TEAD2 inhibitor | Tumor growth was observed | 1 | 1 | 0 | pronounced thermal shift only for TEAD1 | long half-life | < 200 | – | – | – | – | – | – |
| C[C@H](CO)NC(=O)c1ccc2c(Oc3ccc(C(F)(F)F)cc3)cccc2c1 [VT3989] | – | – | – | – | – | – | – | – | primarily interacts with TEAD1-3; also recorded: lower levels of binding to TEAD4 | minimal selectivity over TEAD2 and 3 | 8.8 | 4.6 | 11.6 | 8.5 |
